# Source: patent US20230278972A1, “SUBSTITUTED HALOALKYL SULFONANILIDE HERBICIDES” (FMC Corporation, priority 2020, published 2023)
# Assays:
# Type in all cases: in vivo
# [1] = tested on: Ryegrass, Italian (Italian ryegrass, Lolium multiflorum); test: Test A preemergence, Ryegrass, Italian; details: Preemergence; for Plant response rating, Ryegrass, Italian: 31 g ai/ha, visual injury, 0 to 100 scale (0 no effect, 100 complete control), approx. 10 days; for Ryegrass, Italian plant response rating: 125 g ai/ha, visual injury on 0 to 100 scale (0 no effect, 100 complete control), approximately 10 days
# Procedure, shortened: (§1)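 Postemergence ratings come from foliar sprays onto one- to two-leaf plants of 2 to 10 cm grown in loam/sand; preemergence ratings come from a directed spray onto the soil of newly seeded pots. Formulation was a surfactant-containing non-phytotoxic solvent blend.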
# [2] = tested on: blackgrass (Alopecurus myosuroides); test: Test A postemergence, blackgrass; details: Postemergence, 0 to 100 scale (0 no effect, 100 complete control)
# Procedure, shortened: as §1
# [3] = tested on: Ryegrass, Italian (Italian ryegrass, Lolium multiflorum); test: Test A postemergence, Ryegrass, Italian; details: Postemergence
# Procedure, shortened: as §1
# [4] = tested on: kochia (Bassia scoparia); test: Test A postemergence, kochia; details: Postemergence
# Procedure, shortened: as §1
# [5] = tested on: ragweed (common ragweed, Ambrosia artemisiifolia); test: Test A postemergence, ragweed; details: Postemergence
# Procedure, shortened: as §1
# [6] = tested on: ragweed (common ragweed, Ambrosia artemisiifolia); test: Test A preemergence, ragweed; details: Preemergence; for Plant response rating, Ragweed: 31 g ai/ha, visual injury, 0 to 100 scale (0 no effect, 100 complete control), approx. 10 days; for Ragweed plant response rating: 125 g ai/ha, visual injury on 0 to 100 scale (0 no effect, 100 complete control), approximately 10 days
# Procedure, shortened: as §1
# [7] = tested on: wheat (Triticum aestivum); test: Test A postemergence, wheat; details: Postemergence
# Procedure, shortened: (§2)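 Preemergence: seeded pots of loam plus sand received a directed soil spray. Postemergence: seedlings at one to two leaves, 2 to 10 cm high, were oversprayed. Each compound was formulated in a non-phytotoxic solvent mix that included a surfactant.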
# [8] = tested on: pigweed (Amaranthus retroflexus); test: Test A postemergence, pigweed; details: Postemergence
# Procedure, shortened: as §1
# [9] = tested on: kochia (Bassia scoparia); test: Test A preemergence, kochia; details: Preemergence; for Plant response rating, Kochia: 31 g ai/ha, visual injury, 0 to 100 scale (0 no effect, 100 complete control), approx. 10 days; for Kochia plant response rating: 125 g ai/ha, visual injury on 0 to 100 scale (0 no effect, 100 complete control), approximately 10 days
# Procedure, shortened: as §1
# [10] = tested on: galium (catchweed bedstraw, Galium aparine); test: Test A postemergence, galium; details: Postemergence
# Procedure, shortened: as §2
# [11] = tested on: Foxtail, Giant (giant foxtail, Setaria faberi); test: Test A preemergence, Foxtail, Giant; details: Preemergence; for Plant response rating, Foxtail, Giant: 31 g ai/ha, visual injury, 0 to 100 scale (0 no effect, 100 complete control), approx. 10 days; for Foxtail, Giant plant response rating: 125 g ai/ha, visual injury on 0 to 100 scale (0 no effect, 100 complete control), approximately 10 days
# Procedure, shortened: as §1
# [12] = tested on: barnyardgrass (Echinochloa crus-galli); test: Test A postemergence, barnyardgrass; details: Postemergence, 0 to 100 scale (0 no effect, 100 complete control)
# Procedure, shortened: as §2
# [13] = tested on: corn (Zea mays); test: Test A postemergence, corn; details: Postemergence
# Procedure, shortened: as §1
# [14] = tested on: pigweed (Amaranthus retroflexus); test: Test A preemergence, pigweed; details: for Plant response rating, Pigweed: 31 g ai/ha, visual injury, 0 to 100 scale (0 no effect, 100 complete control), approx. 10 days; for Pigweed plant response rating: 125 g ai/ha, visual injury on 0 to 100 scale (0 no effect, 100 complete control), approximately 10 days
# Procedure, shortened: as §2
# [15] = tested on: Foxtail, Giant (giant foxtail, Setaria faberi); test: Test A postemergence, Foxtail, Giant; details: Postemergence
# Procedure, shortened: as §1
# [16] = tested on: barnyardgrass (Echinochloa crus-galli); test: Test A preemergence, barnyardgrass; details: Preemergence; for Plant response rating, Barnyardgrass: 31 g ai/ha, visual injury, 0 to 100 scale (0 no effect, 100 complete control), approx. 10 days; for Barnyardgrass plant response rating: 125 g ai/ha, visual injury on 0 to 100 scale (0 no effect, 100 complete control), approximately 10 days
# Procedure, shortened: as §1
# [17] = 125 g ai/ha, visual injury approx. 10 days
# [18] = 31 g ai/ha, 0 to 100 scale (0 no effect, 100 complete control)
# [19] = 125 g ai/ha, visual injury approx. 10 days, 0 to 100 scale (0 no effect, 100 complete control)
# [20] = 31 g ai/ha, visual injury on 0 to 100 scale (0 no effect, 100 complete control), approx. 10 days
# [21] = 125 g ai/ha, 0 to 100 scale (0 no effect, 100 complete control)
structure (smiles),measurement,setting,value
COC1CCCN(C(=O)c2cc(NS(=O)(=O)C(F)(F)F)c(C)c(F)c2C)C1 (stereo not shown) [Compound 98],"Plant response rating, Ryegrass, Italian",[1],30
same,"Ryegrass, Italian plant response rating",[1],50
same,"Plant response rating, Blackgrass",[2]; 31 g ai/ha,20
same,"Plant response rating, Blackgrass",[2]; [17],0
same,"Plant response rating, Ryegrass, Italian",[3]; [18],30
same,"Plant response rating, Ryegrass, Italian",[3]; [19],30
same,"Plant response rating, Kochia",[4]; [18],10
same,"Plant response rating, Kochia",[4]; [19],20
same,"Plant response rating, Ragweed",[5]; [18],50
same,"Plant response rating, Ragweed",[5]; [19],60
same,"Plant response rating, Ragweed",[6],30
same,Ragweed plant response rating,[6],80
same,"Plant response rating, Wheat",[7]; [18],0
same,"Plant response rating, Wheat",[7]; [19],40
same,"Plant response rating, Pigweed",[8]; [18],30
same,"Plant response rating, Pigweed",[8]; [19],80
same,"Plant response rating, Kochia",[9],40
same,Kochia plant response rating,[9],40
same,"Plant response rating, Galium",[10]; [18],60
same,"Plant response rating, Galium",[10]; [19],90
same,"Plant response rating, Foxtail, Giant",[11],80
same,"Foxtail, Giant plant response rating",[11],100
same,"Plant response rating, Barnyardgrass",[12]; 31 g ai/ha,0
same,"Plant response rating, Barnyardgrass",[12]; [17],50
same,"Plant response rating, Corn",[13]; [18],0
same,"Plant response rating, Corn",[13]; [19],10
same,"Plant response rating, Pigweed",[14],70
same,Pigweed plant response rating,[14],100
same,"Plant response rating, Foxtail, Giant",[15]; [18],0
same,"Plant response rating, Foxtail, Giant",[15]; [19],20
same,"Plant response rating, Barnyardgrass",[16],0
same,Barnyardgrass plant response rating,[16],90
Cc1cc(C)c(N(COC(=O)c2ccccc2)S(=O)(=O)C(F)(F)F)cc1C1=NOC2(CCCC2)C1 [Compound 149],"Plant response rating, Ryegrass, Italian",[1],50
same,"Ryegrass, Italian plant response rating",[1],50
same,"Plant response rating, Blackgrass",[2]; 31 g ai/ha,0
same,"Plant response rating, Blackgrass",[2]; 125 g ai/ha,20
same,"Plant response rating, Ryegrass, Italian",[3]; [20],0
same,"Plant response rating, Ryegrass, Italian",[3]; [21],0
same,"Plant response rating, Kochia",[4]; [20],0
same,"Plant response rating, Kochia",[4]; [21],10
same,"Plant response rating, Ragweed",[5]; [20],0
same,"Plant response rating, Ragweed",[5]; [21],20
same,"Plant response rating, Ragweed",[6],0
same,Ragweed plant response rating,[6],0
same,"Plant response rating, Wheat",[7]; [20],0
same,"Plant response rating, Wheat",[7]; [21],0
same,"Plant response rating, Pigweed",[8]; [20],0
same,"Plant response rating, Pigweed",[8]; [21],40
same,"Plant response rating, Kochia",[9],0
same,Kochia plant response rating,[9],0
same,"Plant response rating, Galium",[10]; [20],0
same,"Plant response rating, Galium",[10]; [21],60
same,"Plant response rating, Foxtail, Giant",[11],30
same,"Foxtail, Giant plant response rating",[11],80
same,"Plant response rating, Barnyardgrass",[12]; 31 g ai/ha,10
same,"Plant response rating, Barnyardgrass",[12]; 125 g ai/ha,40
same,"Plant response rating, Corn",[13]; [20],0
same,"Plant response rating, Corn",[13]; [21],0
same,"Plant response rating, Pigweed",[14],30
same,Pigweed plant response rating,[14],70
same,"Plant response rating, Foxtail, Giant",[15]; [20],0
same,"Plant response rating, Foxtail, Giant",[15]; [21],30
same,"Plant response rating, Barnyardgrass",[16],0
same,Barnyardgrass plant response rating,[16],0
